Source: article PMC11845477, “Exploring the principles behind antibiotics with limited resistance” (Nature Communications, 2025)
Values joined by “and” are separate entries in the source; they are usually repeats but may differ in a detail not shown here. Equal values may be shown once. Read-outs that look alike come from different tables or passages of the source. Where a SMILES comes first, the peptide text is derived from it. Bridges are numbered along the chain shown (N, C = ends). [ ]: non-standard residue; d: D form. The star is where a group is joined. X1 = NC[C@@H](CC(=O)*)c1cccc(Cl)c1; X2 = CC[C@H](C)CCCCC(=O)*; Dab = NCC[C@H](N)C(=O)O; Dap = NC[C@H](N)C(=O)O

Key:
K. pneumoniae = type: cell-based, Klebsiella pneumoniae; details: for Survival rate (log10): Klebsiella pneumoniae, survival at 10xMIC for 4 hours, single replicates, (fig 9a source data)
Experimental: (§1) We employed image analysis to quantify bacterial survival under fixed antibiotic concentrations (10xMIC for 4 hours) on E. coli, A. baumannii, K. pneumoniae, and P. aeruginosa. […] Survival rate was quantified by calculating the ratio of the viable cells after antibiotic treatment and the total initial viable cell count.
(§2) Fig. 9 Killing kinetics of the studied antibiotics. a Bacterial survival rate in response to toxic antibiotic exposure. […] The bars indicate the survival rate (log10) compared to the untreated initial viable cell count (see “Methods”). Data are presented as mean values of 5 biological replicates ± SEM. The antibiotic group differentiation is denoted by color. […] Survival was estimated by measuring cell viability (colony-forming units/ml) of 2 biologically independent strains following a 4-hour exposure to different concentrations of 16 antibiotics on E. coli ATCC25922 (for further details, see “Methods”). The antibiotic concentration that kills 99.9% of the E. coli population is indicated as a vertical dotted line (see Supplementary Data 5). Error bars represent standard error calculated from the colony counts by Poisson’s model. A Hill function was fitted to the dose-response data from two biological replicates, producing sigmoidal curves (Supplementary Data 5). The Hill coefficient reflects how steeply the survival rate decreases in response to increasing antibiotic concentration ([…]). […] X-axis label colors indicate mode of action groups. For detailed information on antibiotic and bacterial species, see Supplementary Data 1. Source data are provided as a Source Data file.
(§3) In this current study, the killing kinetics of each antibiotic was measured according to a previously established experimental protocol[62] with minor modifications. During this assay, the bacterial cultures were exposed to antibiotics in 96-well assay plates and their viability after 4 hours of exposure was quantified by two methods: i) microplating and colony counting or ii) fluorescent staining of cells and counting of the fluorescent units.
(§4) Specifically, these experiments were performed in the following steps: (1) Preparation of bacterial stocks. Single colonies from each strain were isolated and grown overnight in MHB medium at 37 °C, 160 rpm. In case of the fluorescently tagged E. coli strains, the medium was supplemented with 10 μg/mL chloramphenicol, to maintain the pZS2R plasmid. Overnight cultures were diluted 1:5000 and grown to an optical density at 600 nm (OD600) of 0.25. These cultures were concentrated by centrifugation and small aliquots of 50 μL containing ~2.2 × 10^9 cells were frozen in glycerol (stored at −80 °C). (2) Preparing assay plates with antibiotics. 96-well plates were filled with 235 μL MHB and supplemented with antibiotics using an automated digital dispenser (D300e, Tecan). In the case of SCH79797, we used minimal media. […] For testing the clearance efficacy of each antibiotic at a single lethal dose, the 10x of the MIC for each antibiotic-strain pair were prepared in at least three replicates. (3) Antibiotic exposure. During the dose response assay, frozen cultures of the E. coli strains expressing YFP and mCherry were thawed and mixed at a 1:1 ratio, diluted 1:1000 in 30 mL MHB and incubated for 45 min at 37 °C and 160 rpm. During the single-dose assay, the frozen cultures of experimental strains (E. coli, K. pneumoniae, A. baumannii) were also thawed and diluted 1:1000 in 30 mL MHB and incubated at 37 °C to reach an OD of 0.25 and 160 rpm. Following this incubation phase, these bacterial cultures were then aliquoted into the 96-well deep-well antibiotic plates (15 μL culture; total volume of 250 μL) at an inoculum density of about 10^7 CFU.

A. baumannii = experiment: Bacterial survival at 10xMIC for 4 hours; type: cell-based, Acinetobacter baumannii; details: for Survival rate (log10): Acinetobacter baumannii, survival at 10xMIC for 4 hours, single replicates, (fig 9a source data)
Experimental: as §1, §2, §3, §4

E. coli = type: cell-based, Escherichia coli
Experimental: as §1, §2, §3, §4

P. aeruginosa = type: cell-based, Pseudomonas aeruginosa; details: Pseudomonas aeruginosa, survival at 10xMIC for 4 hours, single replicates, (fig 9a source data)
Experimental: as §1, §2, §3, §4

[1] = Escherichia coli, survival at 10xMIC for 4 hours, single replicates, (fig 9a source data)

With `CN[C@@H]1[C@@H](O[C@H]2O[C@H](CO)[C@@H](N)[C@H](O)[C@H]2O)OC2C[C@@H](N)[C@@H](O[C@H]3[C@H](O)[C@@H](O)[C@H](N)C[C@@H]3N)OC2[C@@H]1O` (some centres unmarked) [Apramycin] the “Survival rate (log10)” value (K. pneumoniae; listed as APR) was -1.19 log10 and -1.1 log10 and -1.062 log10 and -0.9595 log10 and -0.945 log10 and the “Survival rate (log10)” value (A. baumannii; listed as APR) was -1.378 log10 and -1.536 log10 and -1.241 log10 and -1.504 log10 and -1.3851 log10.

In the case of `Nc1nc(-n2cc(C(=O)O)c(=O)c3cc(F)c(N4CC(O)C4)c(Cl)c32)c(F)cc1F` [Delafloxacin], the “Survival rate (log10)” value (K. pneumoniae; listed as DEL) is reported as -0.7389 log10 and -0.7966 log10 and -0.7399 log10 and -1.048 log10 and -0.8397 log10, the “Survival rate (log10)” value (E. coli; Escherichia coli, survival at 10xMIC for 4 hours, single replicates, (fig 9a source data), listed as DEL) is reported as -1.163 log10 and -1.03 log10 and -1.096 log10 and -1.128 log10 and -1.122 log10 and the “Survival rate (log10)” value (A. baumannii; listed as DEL) is reported as -1.416 log10 and -1.661 log10 and -1.352 log10 and -1.5252 log10 and -1.635 log10. For the same compound, the “Survival rate (log10)” value (P. aeruginosa; listed as DEL) was -0.244 log10 and -0.1736 log10 and -0.08683 log10 and -0.3488 log10 and -0.1122 log10.

`CN(C)[C@@H]1C(O)=C(C(N)=O)C(=O)[C@@]2(O)C(O)=C3C(=O)c4c(O)c(NC(=O)CN5CCCC5)cc(F)c4C[C@H]3C[C@@H]12` [Eravacycline] was tested, and the “Survival rate (log10)” value (K. pneumoniae; listed as ERA) was -0.6401 log10 and -0.9022 log10 and -0.9087 log10 and -0.8384 log10 and -0.7454 log10, the “Survival rate (log10)” value (E. coli; Escherichia coli, survival at 10xMIC for 4 hours, single replicates, (fig 9a source data), listed as ERA) was -1.588 log10 and -1.262 log10 and -1.406 log10 and -1.2833 log10 and -1.1562 log10 and the “Survival rate (log10)” value (A. baumannii; listed as ERA) was -1.499 log10 and -1.238 log10 and -1.644 log10 and -1.596 log10 and -1.425 log10. For the same compound, the “Survival rate (log10)” value (P. aeruginosa; listed as ERA) was -0.509 log10 and -0.5518 log10 and -0.8039 log10 and -0.6612 log10 and -0.7582 log10.

For `CNC(C)C1CCC(N)C(OC2C(N)CC(N)C(OC3OCC(C)(O)C(NC)C3O)C2O)O1` (centres unmarked) [Gentamicin], the “Survival rate (log10)” value (K. pneumoniae; listed as GEN) was -0.9685 log10 and -0.989 log10 and -1.08 log10 and -0.8281 log10 and -1.091 log10, the “Survival rate (log10)” value (E. coli; Escherichia coli, survival at 10xMIC for 4 hours, single replicates, (fig 9a source data), listed as GEN) was -0.32 log10 and -0.3695 log10 and -0.2419 log10 and -0.4019 log10 and -0.3632 log10 and the “Survival rate (log10)” value (A. baumannii; listed as GEN) was -1.432 log10 and -1.215 log10 and -1.434 log10 and -1.4437 log10 and -1.516 log10. For the same compound, the “Survival rate (log10)” value (P. aeruginosa; listed as GEN) was -0.02375 log10 and -0.1205 log10 and -0.1516 log10 and -0.09697 log10 and -0.6642 log10.

With `CC[C@H](C)CCCCC(=O)N[C@@H](CCN)C(=O)N[C@H](C(=O)N[C@@H](CCN)C(=O)N[C@H]1CCNC(=O)[C@H]([C@@H](C)O)NC(=O)[C@H](CCN)NC(=O)[C@H](CCN)NC(=O)[C@H](CC(C)C)NC(=O)[C@@H](Cc2ccccc2)NC(=O)[C@H](CCN)NC1=O)[C@@H](C)O` [Polymyxin B] (X2-[Dab]T[Dab][Dab][Dab][dF]L[Dab][Dab]T; lactam 4-C (inferred); N-terminus assumed) the “Survival rate (log10)” value (K. pneumoniae; listed as PMB) was -3.309 log10 and -3.392 log10 and -3.139 log10 and -2.914 log10 and -3.825 log10, the “Survival rate (log10)” value (E. coli; Escherichia coli, survival at 10xMIC for 4 hours, single replicates, (fig 9a source data), listed as PMB) was -4.007 log10 and -4.747 log10 and -3.481 log10 and the “Survival rate (log10)” value (A. baumannii; listed as PMB) was -3.38 log10 and -2.762 log10 and -3.033 log10 and -2.9785 log10 and -2.974 log10. For the same compound, the “Survival rate (log10)” value (P. aeruginosa; listed as PMB) was -6 log10 and -3.379 log10.

In the case of `CC(C)c1ccc(Cn2ccc3c4c(N)nc(NC5CC5)nc4ccc32)cc1` [SCH79797], the “bacterial survival after toxic antibiotic exposure” value (“bacterial survival” for short) (K. pneumoniae; 10xMIC for 4 hours) is reported as “eliminated the entire bacterial population”, the “Survival rate (log10)” value (K. pneumoniae) is reported as -6 log10 and the “bacterial survival” value (E. coli; 10xMIC for 4 hours) is reported as “eliminated the entire bacterial population”. For the same compound, the “Survival rate (log10)” value (E. coli; [1]) was -6 log10, the “bacterial survival” value (A. baumannii; 10xMIC for 4 hours) was “eliminated the entire bacterial population” and the “Survival rate (log10)” value (A. baumannii) was -6 log10.

In the case of `CC(C)C[C@@H]1NC(=O)[C@@H](Cc2ccccc2)NC(=O)[C@H](CCN)NC(=O)[C@@H](NC(=O)[C@H](CN)NC(=O)[C@@H](NC(=O)C[C@H](CN)c2cccc(Cl)c2)[C@@H](C)O)CCNC(=O)[C@H]([C@@H](C)O)NC(=O)[C@H](CCN)NC(=O)[C@H](CCN)NC1=O` [SPR206] (X1-T[Dap][Dab][Dab][dF]L[Dab][Dab]T; lactam 3-C (inferred); N-terminus assumed), the “Survival rate (log10)” value (K. pneumoniae; listed as SPR) is reported as -4.671 log10 and -4.37 log10 and -3.671 log10, the “Survival rate (log10)” value (E. coli; Escherichia coli, survival at 10xMIC for 4 hours, single replicates, (fig 9a source data), listed as SPR) is reported as -4.747 log10 and -3.687 log10 and -3.935 log10 and -4.007 log10 and -3.902 log10 and the “Survival rate (log10)” value (A. baumannii; listed as SPR) is reported as -1.951 log10 and -2.839 log10 and -3.084 log10 and -1.511 log10 and -2.915 log10. For the same compound, the “Survival rate (log10)” value (P. aeruginosa; listed as SPR) was -6 log10 and -2.301 log10 and -2.534 log10 and -2.682 log10.

In the case of `C[C@@H](O)[C@H]1C(=O)N2C(C(=O)O)=C(S[C@H]3CC[S@@+]([O-])C3)S[C@H]12` [Sulopenem], the “Survival rate (log10)” value (K. pneumoniae; listed as SUO) is reported as -0.7658 log10 and -1.06 log10 and -0.9043 log10 and -0.6919 log10 and -1.504 log10, the “Survival rate (log10)” value (E. coli; Escherichia coli, survival at 10xMIC for 4 hours, single replicates, (fig 9a source data), listed as SUO) is reported as -1.918 log10 and -1.5648 log10 and -1.786 log10 and -1.733 log10 and -1.844 log10 and the “Survival rate (log10)” value (A. baumannii; listed as SUO) is reported as -2.317 log10 and -2.432 log10 and -2.658 log10 and -2.635 log10.

Tridecaptin M152-P3 was tested, and the “Survival rate (log10)” value (K. pneumoniae; listed as TRD) was -2.838 log10 and -3.629 log10 and -3.392 log10 and -4.671 log10, the “Survival rate (log10)” value (E. coli) was -4.747 log10 and the “Survival rate (log10)” value (E. coli; [1]) was -3.386 log10. The “Survival rate (log10)” value (A. baumannii; listed as TRD) was -2.876 log10 and -2.59 log10 and -2.704 log10 and -2.72 log10 and -2.696 log10.
